Test results reported in PMC6395926, “Mass Balance and Drug Interaction Potential of Intravenous Eravacycline Administered to Healthy Subjects” (Antimicrobial Agents and Chemotherapy, 2019).
“Also recorded” adds a separate entry of the source. Read-outs that look alike come from different tables or passages of the source.

Tests used:
[1] = in vitro; previous studies, no reference given; cited from earlier work
[2] = Mass balance study: plasma PK of eravacycline, TP-498 and TP-6208 (LC-MS); type: in vivo, human; settings: in vivo, iv
Excerpt: (ii) Study design. This was a single-center, open-label study of a single i.v. dose of [^14C]eravacycline to assess the mass balance recovery and PK of eravacycline. The primary objectives were to determine mass balance recovery, determine routes and rates of excretion, provide metabolite profiling and structural identification, and assess the PK of radioactivity in plasma and whole blood. Subjects were screened for inclusion in the study, including a detailed medical history, physical examination, and laboratory evaluations, in the 28 days before dosing. Eligible subjects were admitted to the clinical study unit at approximately 21:00 on the evening prior to study drug administration (day −1) and remained on site until 240 h postdose for collection of urine, feces, and blood samples. After an overnight fast, each subject received 60 mg [^14C]eravacycline containing not more than 3.8 MBq (105 μCi) ^14C as a single i.v. infusion over 60 min.
(vi) Study assessments. PK parameters were determined for total radioactivity in plasma and whole blood. Eravacycline, TP-498, and TP-6208 concentrations in plasma were quantified using a validated assay with internal standards. The following PK parameters were determined: Cmax, Tmax, time from dosing before the first quantifiable concentration in a concentration versus time profile (Tlag), AUC0–t, AUC0–24, AUC0–∞, the percentage of AUC0–∞ extrapolated beyond the time of the last measurable concentration (AUC%extrap), the slope of the apparent terminal phase (lambda-z), the apparent terminal half-life (t1/2), the mean residence time estimated between time zero and infinity (MRT0-∞), the apparent volume of plasma cleared of analyte per unit time (CL), and the volume of distribution of analyte at steady state (Vss).
Plasma concentrations of eravacycline, TP-498, and TP-6208 were measured by liquid chromatography with tandem mass spectrometry (LC-MS). The LLOQ was 5 ng/ml for eravacycline, TP-498, and TP-6208. The calibration ranges for eravacycline, TP-498, and TP-6208 in human urine were 50 to 10,000 ng/ml, 50 to 1,000 ng/ml, and 20 to 1,000 ng/ml, respectively. The calibration ranges for eravacycline, TP-498, and TP-6208 in human plasma were 5 to 500 ng/ml.
(viii) Study analysis. Descriptive statistics (mean, median, standard deviation [SD], percent coefficient of variation [%CV], minimum, maximum, number, geometric mean, and geometric %CV) were calculated for all concentration data. Pharmacokinetic parameters were calculated using Phoenix WinNonlin v6.3 (Certera USA, Inc.).

[3] = Drug interaction study with rifampin (CYP3A4 inducer): plasma PK of i.v. eravacycline and metabolites; type: in vivo, human; settings: in vivo
Description: Two single-center, open-label studies were conducted to evaluate the effects of itraconazole (CYP3A4 inhibitor) and rifampin (CYP3A4 inducer) on the pharmacokinetics of i.v. eravacycline in healthy subjects.
(ii) Study design. Each study included a 28-day screening period, a 13-day treatment period (19 days for rifampin), and an end-of-study visit 2 weeks after the last dose of study drug. […] For the itraconazole study, 200 mg oral itraconazole was administered q12h on day 8 and q24h on days 9 and 10. For the rifampin study, 600 mg oral rifampin was administered q24h from day 8 to day 17. All study treatments were administered in the fasting state.
(§1) (iii) Study assessments. Blood samples for PK analysis of eravacycline and its metabolites, TP-498, TP-6208, and TP-034, were collected predose and 1, 2, 4, 6, 8, 12, 24, 36, and 48 h after the start of the i.v. infusion on day 1 and day 10 (itraconazole) or day 1 and day 17 (rifampin). Safety assessments included AEs, clinical laboratory safety tests (hematology, serum chemistry, electrolytes, coagulation, urinalysis, and lipid profile), vital signs, physical examinations, and 12-lead ECG.
Concentrations of eravacycline, TP-498, and TP-6208 in human plasma samples were measured by LC-tandem MS after solid-phase extraction over a calibration range of 5.00 to 500 ng/ml. The LLOQ for eravacycline, TP-498, TP-6208, and TP-034 in human plasma was 5.00 ng/ml. Samples with eravacycline initial concentrations above the upper limit of quantification (500 ng/ml) were diluted appropriately with control blank human plasma and reanalyzed. There was no interference seen when human plasma was fortified with eravacycline, TP-498, TP-6208, and either itraconazole or rifampin.
(iv) Pharmacokinetic analysis. PK assessments included Cmax, Tmax, AUC0–24, AUC0–t, t1/2, CL, and Vss. Actual sampling time was used for PK calculations. PK parameters were derived by noncompartmental analysis. Descriptive statistics were calculated for analyte concentrations at each evaluation time point and for all quantitative PK parameters of eravacycline, TP-498, TP-6208, and TP-034 for day 1 and day 10 (day 17 for rifampin). The effect of itraconazole or rifampin on the PK profile of i.v. eravacycline was evaluated by comparing log-transformed PK parameters (Cmax and AUC0–t) associated with the administration of study drug on day 1 and day 10 (itraconazole) or day 1 and day 17 (rifampin) using paired t tests. The ratio and 90% confidence interval (CI) were presented after back transformation to the original scale. Pharmacokinetic variables were calculated using WinNonlin Professional.

[4] = Itraconazole drug interaction study: safety/tolerability; type: in vivo, human; settings: itraconazole treatment period, 3 of 11 subjects
Description: as §1

[5] = parameters: species or system human; settings: human, in vivo
Description: as §1

Row | SMILES | antimicrobial activity [1] | CLR ([2]; human) | Cmax ([2]; human) | geometric mean AUC0–t, fold lower than that of eravacycline ([2]; human) | geometric mean Cmax, fold lower than that of eravacycline ([2]; human) | time postdose plasma concentrations were quantifiable [2] | Mean Cmax and AUC0–24 when eravacycline was dosed with or without rifampin [3] | AUC0–∞ ([2]; human) | geometric mean AUC0–∞, fold lower than that of eravacycline ([2]; human) | t1/2 ([2]; human) | subjects who experienced an AE [4] | subjects who experienced an AE [5]
1 | CN(C)[C@H]1C(O)=C(C(N)=O)C(=O)[C@@]2(O)C(O)=C3C(=O)c4c(O)c(NC(=O)CN5CCCC5)cc(F)c4C[C@H]3C[C@@H]12 [TP-498] | no in vitro antimicrobial activity; also recorded: None exhibit antimicrobial activity | 85.7 ± 35.5 mL/min | 20.4 ± 18.9 ng/mL | 13.5 fold | 53.9 fold | 37 to 49 h | similar | – | – | – | – | –
2 | CN(C)[C@@H]1C(=O)C(C(N)=O)=C(O)[C@@]2(O)C(=O)C3=C(O)c4c(O)c(N5C(=O)CN6CCCC65)cc(F)c4C[C@H]3C[C@@H]12 (some centres unmarked) [TP-6208] | no in vitro antimicrobial activity; also recorded: None exhibit antimicrobial activity | – | 42.8 ± 28.9 ng/mL | 2.9 fold | 25.7 fold | 49 to 73 h | – | 1780 ± 26.9 (n = 2) h·ng/ml | 2.5 fold | 18.8 ± 17.8 (n = 2) h | – | –
3 | CCC(C)n1ncn(-c2ccc(N3CCN(c4ccc(OCC5COC(Cn6cncn6)(c6ccc(Cl)cc6Cl)O5)cc4)CC3)cc2)c1=O (centres unmarked) [itraconazole, reference compound] | – | – | – | – | – | – | – | – | – | – | 27.3% | –
4 | CO[C@H]1/C=C/O[C@@]2(C)Oc3c(C)c(O)c4c(O)c(c(/C=N/N5CCN(C)CC5)c(O)c4c3C2=O)NC(=O)/C(C)=C\C=C\[C@H](C)[C@H](O)[C@@H](C)[C@@H](O)[C@@H](C)[C@H](OC(C)=O)[C@@H]1C [rifampin, reference compound] | – | – | – | – | – | – | – | – | – | – | – | 8.3%
